Source: patent US4767872A, “Epoxide derivatives” (Centre National de la Recherche Scientifique (CNRS), priority 1985, dated 1988)

Legend:
[1] = biological target: T1, RALD (aldehyde reductase) (Rattus norvegicus, UniProt P51635); assay: In vitro test: inhibition of RALD in cellular homogenates of NRK B77 cells; assay type: biochemical
T1 construct: NADPH, malonic dialdehyde substrate, pH 6
T1 sequence (P51635 1-325): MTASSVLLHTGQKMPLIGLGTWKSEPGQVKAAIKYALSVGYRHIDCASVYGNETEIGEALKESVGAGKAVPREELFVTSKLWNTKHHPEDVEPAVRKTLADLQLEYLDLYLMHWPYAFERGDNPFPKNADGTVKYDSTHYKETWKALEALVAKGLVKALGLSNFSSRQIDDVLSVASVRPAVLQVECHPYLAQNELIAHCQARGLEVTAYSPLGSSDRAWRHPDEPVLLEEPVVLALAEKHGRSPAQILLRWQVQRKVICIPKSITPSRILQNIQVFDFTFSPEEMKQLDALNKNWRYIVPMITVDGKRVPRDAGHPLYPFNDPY
Protocol: Cellular homogenates of NRK B77 cells which contain about 500 micrograms of the enzyme are prepared and incubated with the compound of Example 1 at doses of 0.2 mM, 0.8 mM and 1 mM. The incubation lasts for 15, 30 or 60 minutes.
After incubation, an aliquot is added to the substrate which is 2 mM malonic dialdehyde dissolved in a phosphate buffer of pH 6 containing 0.35 mM of NADPH (co-factor of the enzyme).
The optical density is measured every minute, for 5 minutes, at 340 nm.
The transformation of NADPH into […] causes a linear reduction of the optical density. The inhibiting effect is evaluated by the difference between the variation of the optical density in the controls (without inhibitor) and the variation of the optical density with the inhibitor.

HEp2 = assay: Growth inhibition, transformed cells HEp2 (Table 1); assay type: cell-based, human; conditions: 4 days
Protocol: (§1) The tests are carried out in the following manner:
(§2) A culture medium, constituted by the Eagle minimum medium to which has been added 10% of calf serum, is seed with 2×10^5 cells being studied.
(§3) After 4 days of culture, the inhibition relative to non-treated control cultures is measured.

293 = assay: Growth inhibition, transformed cells 293 (Table 1); assay type: cell-based, human; conditions: 4 days
Protocol: as §1, §2, §3

MRC5 [2] = assay: Growth inhibition, normal diploid cells MRC5 (Table 1); assay type: cell-based; conditions: Homo sapiens, 96 h, 4 days, read-out: Cellular growth, percentage of inhibition
Protocol: as §1, §2, §3

HeLa [3] = assay: Growth inhibition, transformed cells HeLa (Table 1); assay type: cell-based; conditions: Homo sapiens, 96 h, 4 days, read-out: Cellular growth, percentage of inhibition
Protocol: as §1, §2, §3

NRK B77 [4] = assay: Growth inhibition, transformed cells NRK B77 (Table 1); assay type: cell-based; conditions: Rattus norvegicus, 96 h, 4 days, read-out: Cellular growth, percentage of inhibition
Protocol: as §1, §2, §3

Toxicity on mice = assay type: in vivo; conditions: intraperitoneal
Protocol: The study of the toxicity has been carried out on mice. The product of Example 1 is administered intraperitoneally at a dosage of 3 g/kg body weight daily for 8 days.

NRK [5] = assay: Growth inhibition, established line NRK (Table 1); assay type: cell-based, rat; conditions: 4 days
Protocol: as §1, §2, §3

CEC = assay: Detection test with compound of formula V, normal cells CEC (Table II); assay type: cell-based, chicken; conditions: Gallus gallus, read-out: inhibition of the growth of the cells
Protocol: (§4) Petri dishes having a diameter of 10 cm are seeded with 10^6 cells to be studied. At the end of 4 hours after seeding, the compound of formula V (with R'=R"=CH3, R'"=H) is added in the form of an aqueous solution containing 0.14 M NaCl, the solution having a volume of 100 microliters. The effect of the compound of formula V is studied at various concentrations.

NRK [6] = assay: Detection test with compound of formula V, benign transformed cells NRK (Table II); assay type: cell-based; conditions: Rattus norvegicus, read-out: inhibition of the growth of the cells
Protocol: as §4

HeLa [7] = assay: Detection test with compound of formula V, malignant cells HeLa (Table II); assay type: cell-based; conditions: Homo sapiens, read-out: inhibition of the growth of the cells
Protocol: as §4

MRC5 [8] = assay: Detection test with compound of formula V, normal cells MRC5 (Table II); assay type: cell-based; conditions: Homo sapiens, read-out: inhibition of the growth of the cells
Protocol: as §4

NRK B77 [9] = assay: Detection test with compound of formula V, malignant cells NRK B77 (Table II); assay type: cell-based; conditions: Rattus norvegicus, read-out: inhibition of the growth of the cells
Protocol: as §4

CC(C)(N)C#CC1(C)CO1 (stereo not shown) [Example 1, 5,6-epoxy-2,5-dimethyl-3-hexyne-2-amine]
inhibition of the RALD activity ([1]; 1 mM, 30 minutes): total inhibition
remaining activity at 800 µM ([1]; 0.5 h, 0.8 mM, 30 minutes): ~10%
remaining activity at 200 µM ([1]; 1 h, 0.2 mM, 60 minutes): < 25%
Cellular growth, percentage of inhibition (HEp2; HEp2, 6 × 10^-4 M): Dead
inhibition at 100 µM (HEp2; Homo sapiens, HEp-2, 96 h, HEp2, 1 × 10^-4 M, read-out: Cellular growth, percentage of inhibition): 0%
inhibition at 200 µM (HEp2; Homo sapiens, HEp-2, 96 h, HEp2, 2 × 10^-4 M, read-out: Cellular growth, percentage of inhibition): 20%
inhibition at 400 µM (HEp2; Homo sapiens, HEp-2, 96 h, HEp2, 4 × 10^-4 M, read-out: Cellular growth, percentage of inhibition): 80%
inhibition at 50 µM (HEp2; Homo sapiens, HEp-2, 96 h, HEp2, 5 × 10^-5 M, read-out: Cellular growth, percentage of inhibition): 0%
Cellular growth, percentage of inhibition (293; 293, 1 × 10^-4 M): 50%
Cellular growth, percentage of inhibition (293; 293, 2 × 10^-4 M): 90%
Cellular growth, percentage of inhibition (293; 293, 4 × 10^-4 M): Dead
Cellular growth, percentage of inhibition (293; 293, 5 × 10^-5 M): 20%
Cellular growth, percentage of inhibition (293; 293, 6 × 10^-4 M): Dead
inhibition at 100 µM (MRC5 [2]; MRC5, 1 × 10^-4 M): 0%
inhibition at 200 µM (MRC5 [2]; MRC5, 2 × 10^-4 M): 0%
inhibition at 400 µM (MRC5 [2]; MRC5, 4 × 10^-4 M): 0%
inhibition at 50 µM (MRC5 [2]; MRC5, 5 × 10^-5 M): 0%
inhibition at 600 µM (MRC5 [2]; MRC5, 6 × 10^-4 M): 0%
inhibition at 100 µM (HeLa [3]; 1 × 10^-4 M): 0%
inhibition at 200 µM (HeLa [3]; 2 × 10^-4 M): 20%
inhibition at 400 µM (HeLa [3]; 4 × 10^-4 M): 80%
inhibition at 50 µM (HeLa [3]; 5 × 10^-5 M): 0%
inhibition at 600 µM (HeLa [3]; 6 × 10^-4 M): 90%
inhibition at 100 µM (NRK B77 [4]; NRK B77, 1 × 10^-4 M): 0%
inhibition at 200 µM (NRK B77 [4]; NRK B77, 2 × 10^-4 M): 0%
inhibition at 400 µM (NRK B77 [4]; NRK B77, 4 × 10^-4 M): 50%
inhibition at 50 µM (NRK B77 [4]; NRK B77, 5 × 10^-5 M): 0%
inhibition at 600 µM (NRK B77 [4]; NRK B77, 6 × 10^-4 M): 60%
apparent toxicity (Toxicity on mice; 3 g/kg daily for 8 days): No apparent toxicity
LD50 (Toxicity on mice; mouse, in vivo, ip, read-out: DL50 (the source's name)): > 3000 mg/kg
Cellular growth, percentage of inhibition (NRK [5]; 6 × 10^-4 M): Dead
inhibition at 200 µM (NRK [5]; Rattus norvegicus, 96 h, 2 × 10^-4 M, read-out: Cellular growth, percentage of inhibition): 30%
inhibition at 400 µM (NRK [5]; Rattus norvegicus, 96 h, 4 × 10^-4 M, read-out: Cellular growth, percentage of inhibition): 60%

CC(C)(N)C#CC=O
inhibition at 5 µM (CEC; 0.5 × 10^-5 M): 0%
inhibition at 100 µM (CEC; 1 × 10^-4 M): 0%
inhibition at 200 µM (CEC; 2 × 10^-4 M): 0%
inhibition at 400 µM (CEC; 4 × 10^-4 M): 10%
inhibition at 600 µM (CEC; 6 × 10^-4 M): 12%
inhibition at 5 µM (NRK [6]; 0.5 × 10^-5 M): 0%
inhibition at 100 µM (NRK [6]; 1 × 10^-4 M): 0%
inhibition at 200 µM (NRK [6]; 2 × 10^-4 M): 0%
inhibition at 400 µM (NRK [6]; 4 × 10^-4 M): 0%
inhibition at 600 µM (NRK [6]; 6 × 10^-4 M): 0%
inhibition at 5 µM (HeLa [7]; 0.5 × 10^-5 M): 0%
inhibition at 100 µM (HeLa [7]; 1 × 10^-4 M): 18%
inhibition at 200 µM (HeLa [7]; 2 × 10^-4 M): 36%
inhibition at 400 µM (HeLa [7]; 4 × 10^-4 M): 78%
inhibition at 600 µM (HeLa [7]; 6 × 10^-4 M): 91%
inhibition at 5 µM (MRC5 [8]; MRC5, 0.5 × 10^-5 M): 0%
inhibition at 100 µM (MRC5 [8]; MRC5, 1 × 10^-4 M): 0%
inhibition at 200 µM (MRC5 [8]; MRC5, 2 × 10^-4 M): 0%
inhibition at 400 µM (MRC5 [8]; MRC5, 4 × 10^-4 M): 0%
inhibition at 600 µM (MRC5 [8]; MRC5, 6 × 10^-4 M): 18%
inhibition at 5 µM (NRK B77 [9]; NRK B77, 0.5 × 10^-5 M): 0%
inhibition at 100 µM (NRK B77 [9]; NRK B77, 1 × 10^-4 M): 16%
inhibition at 200 µM (NRK B77 [9]; NRK B77, 2 × 10^-4 M): 31%
inhibition at 400 µM (NRK B77 [9]; NRK B77, 4 × 10^-4 M): 57%
inhibition at 600 µM (NRK B77 [9]; NRK B77, 6 × 10^-4 M): 79%
